The structures appear in SMILES notation. Where “and” joins values, the source holds several entries; their conditions need not be identical. Equal values may be shown once.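 Method: 48-hour compound exposure of cells in 96-well plates, five concentrations, linear interpolation of endpoints. GI50 is the concentration that inhibits growth by half. Definition used: TGI = concentration required for complete inhibition of growth.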

This passage reports TGI and GI50 results from PubChem BioAssay (NCI).

Test systems include UACC-257 melanoma; SK-MEL-2 melanoma; K-562 leukemia; T-47D breast; 786-0 renal; SK-OV-3 ovarian; SN12C renal; HS 578T breast; A498 renal; CCRF-CEM leukemia; TK-10 renal; NCI-H23 lung.
What all share (test): inhibition of tumour cell growth, NCI panel, 48 h

As to `C=CCC1C2CCC(O[Si](C(C)C)(C(C)C)C(C)C)(C(C(=O)OC)C2)C1O` (stereo not given), the TGI in the experiment with UACC-257 melanoma, in the experiment with SK-MEL-2 melanoma, with K-562 leukemia, in the experiment on T-47D breast, with 786-0 renal and in the experiment with SK-OV-3 ovarian was greater than 100 µM throughout. The TGI in the experiment on SN12C renal, in the experiment on HS 578T breast, in the experiment with A498 renal, in the experiment on CCRF-CEM leukemia, in the experiment on TK-10 renal and with NCI-H23 lung was greater than 100 µM throughout.

For the molecule `C#CC(O)Cc1ccc(OC)c2occc12` (stereo not given), the TGI in the experiment with UACC-257 melanoma, in the experiment on SK-MEL-2 melanoma, in the experiment on K-562 leukemia, in the experiment with T-47D breast, in the experiment with 786-0 renal and with SK-OV-3 ovarian was greater than 100 µM in each case. In addition, the TGI in the experiment with SN12C renal, in the experiment on HS 578T breast, with A498 renal, in the experiment with TK-10 renal and in the experiment on NCI-H23 lung was greater than 100 µM throughout.

Take `O=[N+]([O-])c1ccc2[nH]c(O)c(N=NC(=S)Nc3ccccc3)c2c1`: the TGI with UACC-257 melanoma is 27.4 µM; in the experiment with SK-MEL-2 melanoma it was 31.3 µM; in the experiment on K-562 leukemia it was greater than 100 µM; in the experiment on T-47D breast, 38.9 µM; in the experiment with 786-0 renal it was 17.7 µM; with SK-OV-3 ovarian, 28.2 µM. In addition, the TGI with SN12C renal is 25.8 µM; in the experiment on HS 578T breast it was greater than 100 µM; in the experiment on A498 renal, 13.2 µM; in the experiment on CCRF-CEM leukemia, 20 µM; with TK-10 renal, 23.6 µM; in the experiment on NCI-H23 lung, 25.8 µM.

For the molecule `CC(=O)NC1C(OCc2ccccc2)OC(CO)C(O)C1OCC(=O)N1CCCC1C(=O)NC(CCC(=O)NCCCCCNc1c2ccccc2nc2cccc([N+](=O)[O-])c12)C(N)=O` (stereo not given), the TGI is 0.327 µM with UACC-257 melanoma; 0.0456 µM in the experiment with SK-MEL-2 melanoma; 0.0475 µM in the experiment with K-562 leukemia; 8.41 µM in the experiment on T-47D breast; 0.924 µM with 786-0 renal; 0.538 µM in the experiment on SK-OV-3 ovarian. Further, the TGI in the experiment with SN12C renal was 0.0753 µM; in the experiment with HS 578T breast, 0.19 µM; in the experiment with A498 renal, 0.345 µM; in the experiment with CCRF-CEM leukemia it was 1.08 µM; with TK-10 renal it was 0.762 µM; with NCI-H23 lung, 0.904 µM.

Take `Nc1nc(NCCOCP(=O)(O)O)c(N)c(=O)[nH]1`: the TGI in the experiment on UACC-257 melanoma, in the experiment on SK-MEL-2 melanoma, in the experiment with K-562 leukemia, in the experiment with T-47D breast, in the experiment with 786-0 renal and in the experiment with SK-OV-3 ovarian was greater than 100 µM in each case. Also, the TGI with SN12C renal, with HS 578T breast, in the experiment on A498 renal, in the experiment on CCRF-CEM leukemia, with TK-10 renal and in the experiment on NCI-H23 lung was greater than 100 µM each time.

For the molecule `S=C(Nc1cccc(C2(N3CCCCC3)CCCCC2)c1)Nc1cccc(C2(N3CCCCC3)CCCCC2)c1`, the TGI is 33.4 µM with UACC-257 melanoma; 33.3 µM in the experiment with SK-MEL-2 melanoma; 27.5 µM with K-562 leukemia; 36.6 µM with T-47D breast; 30.5 µM in the experiment with 786-0 renal; greater than 100 µM with SK-OV-3 ovarian. The TGI was greater than 100 µM in the experiment on SN12C renal; greater than 100 µM in the experiment on HS 578T breast; 35.1 µM with A498 renal; 34 µM with CCRF-CEM leukemia; 7.39 µM in the experiment with TK-10 renal; greater than 100 µM in the experiment with NCI-H23 lung.

As for `CC1=C(C)C(=O)C(C2=C(C3=CC(=O)C(C)=C(C)C3=O)C(=O)c3ccccc3C2=O)=CC1=O`, the TGI in the experiment on UACC-257 melanoma was 4.22 µM; with SK-MEL-2 melanoma, 5.71 µM; with K-562 leukemia it was 19.7 µM; with T-47D breast it was 12.4 µM; in the experiment with 786-0 renal it was 5.74 µM; in the experiment on SK-OV-3 ovarian it was 30.5 µM. Also, the TGI with SN12C renal came to 4.06 µM; in the experiment on HS 578T breast it was 43.5 µM; in the experiment on A498 renal, 18.4 µM; in the experiment on CCRF-CEM leukemia it was 7.22 µM; in the experiment on TK-10 renal, 15.9 µM; with NCI-H23 lung, 10.2 µM.

With `CC(C)(CN)SCc1ccccc1`, the TGI in the experiment on UACC-257 melanoma, in the experiment on SK-MEL-2 melanoma, in the experiment on K-562 leukemia, in the experiment on T-47D breast, in the experiment with 786-0 renal and with SK-OV-3 ovarian was greater than 100 µM throughout. Moreover, the TGI in the experiment on SN12C renal, in the experiment with HS 578T breast, with A498 renal, with CCRF-CEM leukemia and in the experiment on TK-10 renal was greater than 100 µM in each case.

Turning to `Cc1cc(C(O)CNC(C)CCn2cnc3c2c(=O)n(C)c(=O)n3C)ccc1O` (stereo not given), the TGI with UACC-257 melanoma, in the experiment with SK-MEL-2 melanoma, in the experiment with K-562 leukemia, with T-47D breast, with 786-0 renal and in the experiment on SK-OV-3 ovarian was greater than 100 µM in each case. For the same molecule, the TGI in the experiment with SN12C renal, in the experiment on HS 578T breast, in the experiment on A498 renal, with CCRF-CEM leukemia, in the experiment on TK-10 renal and with NCI-H23 lung was greater than 100 µM throughout.

Consider `CCN(CC)CCC(=O)O[C@H]1CC[C@H](CC(C)[C@H]2CC(=O)C(C)C=C(C)[C@H](OC(=O)CCN(CC)CC)C(OC)C(=O)[C@@H](C)CC(C)/C=C/C=C/C=C(C)C(OC)CC3CC[C@H](C)[C@](O)(O3)C(=O)C(=O)N3CCCCC3C(=O)O2)CC1OC` (stereo not given in full), for which the TGI with UACC-257 melanoma was 2.54 µM and 2.72 µM; with SK-MEL-2 melanoma, 1.91 µM; in the experiment with K-562 leukemia it was 5.2 µM and 3.65 µM; in the experiment with T-47D breast, 4.12 µM; with 786-0 renal, 2.47 µM and 1.72 µM; in the experiment with SK-OV-3 ovarian, 5.53 µM. Besides, the TGI in the experiment with SN12C renal was 4.28 µM and 2.17 µM; in the experiment with HS 578T breast, 2.28 µM; in the experiment with A498 renal, 1.11 µM; with CCRF-CEM leukemia, > 10 µM and 1.57 µM; with TK-10 renal it was 6.12 µM and 4.25 µM; with NCI-H23 lung, > 10 µM and 3.53 µM. In addition, the GI50 with SK-MEL-2 melanoma is 0.359 µM; in the experiment on T-47D breast, 0.0267 µM; in the experiment on SN12C renal it was 1.42 µM; in the experiment with TK-10 renal, 1.4 µM; with NCI-H23 lung, 1.28 µM.

Take `CC/C=C/C(/C=C/C[C@]1(CC)C[C@H](CC)[C@H](CC(=O)O)OO1)CC` (stereo not given in full): the TGI was 28.9 µM in the experiment on UACC-257 melanoma; 9.11 µM in the experiment on SK-MEL-2 melanoma; greater than 29.8 µM with K-562 leukemia; greater than 23.1 µM in the experiment on T-47D breast; 3.32 µM in the experiment on 786-0 renal; 19.2 µM in the experiment with SK-OV-3 ovarian. For the same molecule, the TGI in the experiment with SN12C renal worked out at 14.7 µM; in the experiment on HS 578T breast it was 4.85 µM; in the experiment with A498 renal it was 28.9 µM; in the experiment on CCRF-CEM leukemia, 1.95 µM; with TK-10 renal, 3.69 µM; in the experiment on NCI-H23 lung, 6.04 µM.
